Measurements: US4864023A, “Pyrido(3,2,1-IJ)-1,3,4-benzoxadiazine derivatives” (priority 1988, dated 1989)
Values after ≈ are worked out from the molar mass of the structure shown. Like-named read-outs stand apart in the source and are kept apart here.

Legend:
Assay in all cases: in vitro antibacterial activity, standard agar dilution method
Assay type in all cases: cell-based
[1] = test system: Enterobacter cloacae NR 2946; details: NR2946, aerobic, read-out: minimum inhibitory concentration (MIC)
[2] = test system: Alcaligenes faecalis IFO 13111; details: IFO13111, aerobic, read-out: minimum inhibitory concentration (MIC)
[3] = test system: Klebsiella pneumoniae FDA PCI 602; details: FDAPCI602, aerobic, read-out: minimum inhibitory concentration (MIC)
[4] = test system: Proteus vulgaris OX19 ATCC 6898; details: ATCC6898, aerobic, read-out: minimum inhibitory concentration (MIC)
[5] = test system: Escherichia coli NIHJ JC-2; details: NIHJJC2, aerobic, read-out: minimum inhibitory concentration (MIC)
[6] = test system: Serratia marcescens IFO 12648; details: IFO12648, aerobic, read-out: minimum inhibitory concentration (MIC)
[7] = test system: Staphylococcus epidermidis IFO 12993; details: IFO12993, aerobic, read-out: minimum inhibitory concentration (MIC)
[8] = test system: Bordetella bronchiseptica ATCC 4617; details: ATCC4617, aerobic, read-out: minimum inhibitory concentration (MIC)
[9] = test system: Salmonella typhimurium IFO 12529; details: Salmonella enterica, aerobic, read-out: minimum inhibitory concentration (MIC)
[10] = test system: Staphylococcus aureus FDA 209P JC-1; details: FDA209P, read-out: minimum inhibitory concentration (MIC)
Escherichia coli NR 2630 = test system: Escherichia coli NR 2630
[11] = test system: Citrobacter freundii IFO 12681; details: IFO12681, aerobic, read-out: minimum inhibitory concentration (MIC)
[12] = test system: Staphylococcus aureus NR 2855
[13] = test system: Enterobacter aerogenes NR 2945; details: Klebsiella aerogenes, NR2945, aerobic, read-out: minimum inhibitory concentration (MIC)
[14] = test system: Staphylococcus aureus Smith; details: read-out: minimum inhibitory concentration (MIC)
[15] = test system: Pseudomonas aeruginosa A3; details: aerobic, read-out: minimum inhibitory concentration (MIC)
[16] = test system: Bacillus subtilis PCI 219; details: PCI219, aerobic, read-out: minimum inhibitory concentration (MIC)
[17] = test system: Enterococcus faecalis NR 2943; details: NR2943, aerobic, read-out: minimum inhibitory concentration (MIC)
[18] = test system: Pseudomonas stutzeri IFO 12695; details: Stutzerimonas stutzeri, IFO12695, aerobic, read-out: minimum inhibitory concentration (MIC)
[19] = test system: Staphylococcus epidermidis NR 2942; details: NR2942, aerobic, read-out: minimum inhibitory concentration (MIC)
[20] = test system: Proteus rettgeri ATCC 14505; details: Providencia rettgeri, ATCC14505, aerobic, read-out: minimum inhibitory concentration (MIC)
[21] = test system: Pseudomonas aeruginosa NR 2950; details: NR2950, aerobic, read-out: minimum inhibitory concentration (MIC)
[22] = NR2630, Escherichia coli NR 2630, aerobic, agar dilution, read-out: minimum inhibitory concentration (MIC)
[23] = NR2855, Staphylococcus aureus NR 2855, aerobic, agar dilution, read-out: minimum inhibitory concentration (MIC)
[24] = Staphylococcus aureus FDA 209P JC-1, aerobic, agar dilution
[25] = Staphylococcus aureus Smith, aerobic, agar dilution

Structure (SMILES) | MIC [1] | MIC [2] | MIC [3] | MIC [4] | MIC [5] | MIC [6] | MIC [7] | MIC [8] | MIC [9] | MIC [11] | MIC [12, 23] | MIC [13] | MIC [15] | MIC [16] | MIC [17] | MIC [18] | MIC [19] | MIC [20] | MIC [21] | MIC [14, 25] | also measured
CN1COc2c(N3CCC(O)C3)c(F)cc3c(=O)c(C(=O)O)cn1c23 (stereo not drawn) [Example 21, 9-fluoro-10-(3-hydroxy-1-pyrrolidinyl)-3-methyl-7-oxo-2,3-dihydro-7H-pyrido[3,2,1-ij]-1,3,4-benzoxadiazine-6-carboxylic acid] | 0.78 µg/mL (≈ 2.23 µM) | 0.78 µg/mL (≈ 2.23 µM) | 0.78 µg/mL (≈ 2.23 µM) | 0.05 µg/mL (≈ 0.143 µM) | 0.39 µg/mL (≈ 1.12 µM) | 0.39 µg/mL (≈ 1.12 µM) | 0.39 µg/mL (≈ 1.12 µM) | 0.78 µg/mL (≈ 2.23 µM) | 0.39 µg/mL (≈ 1.12 µM) | 0.78 µg/mL (≈ 2.23 µM) | 0.2 µg/mL (≈ 0.573 µM) | 0.2 µg/mL (≈ 0.573 µM) | 1.56 µg/mL (≈ 4.47 µM) | 0.05 µg/mL (≈ 0.143 µM) | 3.13 µg/mL (≈ 8.96 µM) | 0.2 µg/mL (≈ 0.573 µM) | 0.39 µg/mL (≈ 1.12 µM) | 0.78 µg/mL (≈ 2.23 µM) | 3.13 µg/mL (≈ 8.96 µM) | – | MIC ([10]; Staphylococcus aureus): 0.39 µg/mL (≈ 1.12 µM); MIC (Escherichia coli NR 2630; [22]): 0.2 µg/mL (≈ 0.573 µM); MIC ([14]; Staphylococcus aureus): 0.39 µg/mL (≈ 1.12 µM)
Cc1cn(-c2c(F)cc3c(=O)c(C(=O)O)cn4c3c2OCN4C)cn1 [Example 22] | 0.1 µg/mL (≈ 0.29 µM) | 3.13 µg/mL (≈ 9.09 µM) | 0.39 µg/mL (≈ 1.13 µM) | 0.0065 µg/mL (≈ 0.0189 µM) | 0.1 µg/mL (≈ 0.29 µM) | 0.78 µg/mL (≈ 2.27 µM) | 0.39 µg/mL (≈ 1.13 µM) | 1.56 µg/mL (≈ 4.53 µM) | 0.1 µg/mL (≈ 0.29 µM) | 0.1 µg/mL (≈ 0.29 µM) | 0.39 µg/mL (≈ 1.13 µM) | 0.1 µg/mL (≈ 0.29 µM) | 1.56 µg/mL (≈ 4.53 µM) | 0.05 µg/mL (≈ 0.145 µM) | 3.13 µg/mL (≈ 9.09 µM) | 0.1 µg/mL (≈ 0.29 µM) | 0.2 µg/mL (≈ 0.581 µM) | 0.78 µg/mL (≈ 2.27 µM) | 6.25 µg/mL (≈ 18.2 µM) | 0.2 µg/mL (≈ 0.581 µM) | MIC [10, 24]: 0.2 µg/mL (≈ 0.581 µM); MIC (Escherichia coli NR 2630; [22]): 0.025 µg/mL (≈ 0.0726 µM)
CC1Oc2c(N3CCNCC3)c(F)cc3c(=O)c(C(=O)O)cn(c23)N1C (stereo not drawn) [Example 25] | 0.78 µg/mL (≈ 2.15 µM) | 50 µg/mL (≈ 138 µM) | 3.13 µg/mL (≈ 8.64 µM) | 0.1 µg/mL (≈ 0.276 µM) | 0.78 µg/mL (≈ 2.15 µM) | 3.13 µg/mL (≈ 8.64 µM) | 6.25 µg/mL (≈ 17.2 µM) | 100 µg/mL (≈ 276 µM) | 0.2 µg/mL (≈ 0.552 µM) | 0.78 µg/mL (≈ 2.15 µM) | 12.5 µg/mL (≈ 34.5 µM) | 0.39 µg/mL (≈ 1.08 µM) | 3.13 µg/mL (≈ 8.64 µM) | 0.78 µg/mL (≈ 2.15 µM) | 100 µg/mL (≈ 276 µM) | 0.39 µg/mL (≈ 1.08 µM) | 6.25 µg/mL (≈ 17.2 µM) | 25 µg/mL (≈ 69 µM) | 50 µg/mL (≈ 138 µM) | 1.56 µg/mL (≈ 4.31 µM) | MIC [10, 24]: 6.25 µg/mL (≈ 17.2 µM); MIC (Escherichia coli NR 2630; Escherichia coli, NR2630, read-out: minimum inhibitory concentration (MIC)): 0.39 µg/mL (≈ 1.08 µM)
CN1CCN(c2c(F)cc3c(=O)c(C(=O)O)cn4c3c2OC(CO)N4C)CC1 (stereo not drawn) [Example 27] | 0.78 µg/mL (≈ 1.99 µM) | 50 µg/mL (≈ 127 µM) | 3.13 µg/mL (≈ 7.98 µM) | 0.2 µg/mL (≈ 0.51 µM) | 0.78 µg/mL (≈ 1.99 µM) | 3.13 µg/mL (≈ 7.98 µM) | 6.25 µg/mL (≈ 15.9 µM) | 25 µg/mL (≈ 63.7 µM) | 0.39 µg/mL (≈ 0.994 µM) | 0.2 µg/mL (≈ 0.51 µM) | 12.5 µg/mL (≈ 31.9 µM) | 0.2 µg/mL (≈ 0.51 µM) | 3.13 µg/mL (≈ 7.98 µM) | 0.39 µg/mL (≈ 0.994 µM) | 50 µg/mL (≈ 127 µM) | 0.2 µg/mL (≈ 0.51 µM) | 6.25 µg/mL (≈ 15.9 µM) | 12.5 µg/mL (≈ 31.9 µM) | 25 µg/mL (≈ 63.7 µM) | 1.56 µg/mL (≈ 3.98 µM) | MIC [10, 24]: 1.56 µg/mL (≈ 3.98 µM)
CC(=O)N1CCN(c2c(F)cc3c(=O)c(C(=O)O)cn4c3c2OCN4C)CC1 [Example 50, 10-(4-acetyl-1-piperazinyl)-9-fluoro-3-methyl-7-oxo-2,3-dihydro-7H-pyrido[3,2,1-ij]-1,3,4-benzoxadiazine-6-carboxylic acid] | 1.56 µg/mL (≈ 4 µM) | 12.5 µg/mL (≈ 32 µM) | 6.25 µg/mL (≈ 16 µM) | 0.39 µg/mL (≈ 0.999 µM) | 1.56 µg/mL (≈ 4 µM) | 3.13 µg/mL (≈ 8.02 µM) | 0.39 µg/mL (≈ 0.999 µM) | 3.13 µg/mL (≈ 8.02 µM) | 0.78 µg/mL (≈ 2 µM) | 3.13 µg/mL (≈ 8.02 µM) | – | 0.78 µg/mL (≈ 2 µM) | 6.25 µg/mL (≈ 16 µM) | 0.0065 µg/mL (≈ 0.0167 µM) | 3.13 µg/mL (≈ 8.02 µM) | – | 0.2 µg/mL (≈ 0.512 µM) | 6.25 µg/mL (≈ 16 µM) | 25 µg/mL (≈ 64 µM) | 0.1 µg/mL (≈ 0.256 µM) | MIC ([10]; Staphylococcus aureus): 0.39 µg/mL (≈ 0.999 µM); MIC (Escherichia coli NR 2630; [22]): 0.2 µg/mL (≈ 0.512 µM); MIC ([12]; Staphylococcus aureus, NR2855, read-out: minimum inhibitory concentration (MIC)): 0.39 µg/mL (≈ 0.999 µM)
